Test results from patent publication US20090029995A1, “HETERO BIARYL DERIVATIVES AS MATRIX METALLOPROTEINASE INHIBITORS” (WARNER-LAMBERT COMPANY, priority 2002, published 2009).

What was measured:
MMP-13 catalytic domain = molecular target: T1, MMP-13 catalytic domain (Homo sapiens, UniProt P45452); assay: MMP-13 catalytic domain inhibition (thiopeptolide substrate hydrolysis); assay type: biochemical; details: read-out: MMP-13CD IC50
T1 construct: use the catalytic domain of the MMP-13 enzyme, namely matrix metalloproteinase-13 catalytic domain (“MMP-13CD”)
Description: The assays measure the amount by which a test compound reduces the hydrolysis of a thiopeptolide substrate catalyzed by a matrix metalloproteinase enzyme. […] One such assay is described below in Biological Method 1.
Some of the particular methods described below use the catalytic domain of the MMP-13 enzyme, namely matrix metalloproteinase-13 catalytic domain (“MMP-13CD”), rather than the corresponding full-length enzyme, MMP-13.
Thiopeptolide substrates show virtually no decomposition or hydrolysis at or below neutral pH in the absence of a matrix metalloproteinase enzyme. A typical thiopeptolide substrate commonly utilized for assays is Ac-Pro-Leu-Gly-thioester-Leu-Leu-Gly-OEt. […] Assays are carried out with and without matrix metalloproteinase inhibitor compounds, and the amount of hydrolysis is compared for a determination of inhibitory activity of the test compounds.

| Compound | IC50 (MMP-13 catalytic domain) [nM] | melting point [°C] |
| --- | --- | --- |
| COc1cccc(Cn2nnc(-c3cccc(C(=O)NCc4ccc(C(=O)O)cc4)c3)n2)c1 [Example 4, 4-({3-[2-(3-Methoxy-benzyl)-2H-tetrazol-5-yl]-benzoylamino}-methyl)-benzoic acid] | 39 | 204 to 206 |
| O=C(O)c1ccc(CNC(=O)c2cccc(-c3nnn(Cc4ccc(F)cc4)n3)c2)cc1 [Example 6, 4-({3-[2-(4-Fluoro-benzyl)-2H-tetrazol-5-yl]-benzoylamino}-methyl)-benzoic acid] |  | 222 to 224 |
| O=C(O)c1ccc(CNC(=O)c2cccc(-c3nnn(Cc4cccc(F)c4)n3)c2)cc1 [Example 8, 4-({3-[2-(3-Fluoro-benzyl)-2H-tetrazol-5-yl]-benzoylamino}-methyl)-benzoic acid] |  | 217 to 219 |
| COC(=O)c1ccc(CNC(=O)c2cccc(-c3nnn(Cc4nccs4)n3)c2)cc1 [Example 9] |  | 158 to 160 |
| C/C=C/Cn1nnc(-c2cccc(C(=O)NCc3ccc(C(=O)OC)cc3)c2)n1 [Example 10, 4-{[3-(2-But-2-enyl-2H-tetrazol-5-yl)-benzoylamino]-methyl}benzoic acid methyl ester] |  | 107 to 108 |
| COc1ccc(Cn2nnc(-c3cccc(C(=O)NCc4nccs4)c3)n2)cc1 [Example 11, 3-[2-(4-Methoxy-benzyl)-2H-tetrazol-5-yl]-N-thiazol-2-ylmethyl-benzamide] |  | 143 to 145 |
| COc1ccc(Cn2nnc(-c3cccc(C(=O)NCc4ccc(CN5CCOCC5)cc4)c3)n2)cc1 [Example 12, 3-[2-(4-Methoxy-benzyl)-2H-tetrazol-5-yl]-N-(4-morpholin-4-ylmethyl-benzyl)-benzamide] |  | 161 to 162 |
| COc1ccc(Cn2nnc(-c3cccc(C(=O)NCc4ccc(F)c(Cl)c4)c3)n2)cc1 [Example 13, N-(3-Chloro-4-fluoro-benzyl)-3-[2-(4-methoxy-benzyl)-2H-tetrazol-5-yl]-benzamide] |  | 150 to 151 |
| COc1ccc(Cn2nnc(-c3cccc(C(=O)NCc4cccc(C(F)(F)F)c4)c3)n2)cc1 [Example 14, 3-[2-(4-Methoxy-benzyl)-2H-tetrazol-5-yl]-N-(3-trifluoromethyl-benzyl)-benzamide] |  | 162 to 163 |
| COc1ccc(Cn2nnc(-c3cccc(C(=O)NCc4ccc5nsnc5c4)c3)n2)cc1 [Example 15, N-2,1,3-Benzothiadiazol-5-ylmethyl-3-[2-(4-methoxy-benzyl)-2H-tetrazol-5-yl]-benzamide] |  | 207 to 208 |
| COc1ccc(Cn2nnc(-c3cccc(C(=O)NCc4ccnc(OC)c4)c3)n2)cc1 [Example 16, 3-[2-(4-Methoxy-benzyl)-2H-tetrazol-5-yl]-N-(2-methoxy-pyridin-4-ylmethyl)-benzamide] |  | 166 to 169 |
| COc1ccc(Cn2nnc(-c3cccc(C(=O)NCc4ccccc4)c3)n2)cc1 [Example 17, N-Benzyl-3-[2-(4-methoxy-benzyl)-2H-tetrazol-5-yl]-benzamide] |  | 169 to 170 |
| COc1ccc(Cn2nnc(-c3cccc(C(=O)NCc4ccncc4)c3)n2)cc1 [Example 18, 3-[2-(4-Methoxy-benzyl)-2H-tetrazol-5-yl]-N-pyridin-4-ylmethyl-benzamide] |  | 163 to 164 |
| COc1ccc(CNC(=O)c2cccc(-c3nnn(Cc4ccc(OC)cc4)n3)c2)cc1 [Example 26, N-(4-Methoxy-benzyl)-3-[2-(4-methoxy-benzyl)-2H-tetrazol-5-yl]-benzamide] |  | 159 to 160 |
| C/C=C/Cn1nnc(-c2cccc(C(=O)NCc3ccccc3)c2)n1 [Example 27, N-Benzyl-3-(2-but-2-enyl-2H-tetrazol-5-yl)-benzamide] |  | 100 to 101 |
| N#Cc1ccc(Cn2nnc(-c3cccc(C(=O)NCc4ccccc4)c3)n2)cc1 [Example 29, N-Benzyl-3-[2-(4-cyano-benzyl)-2H-tetrazol-5-yl]-benzamide] |  | 191 to 192 |
| COC(=O)c1ccc(CNC(=O)c2cc(-c3nnn(Cc4ccc(OC)cc4)n3)ccc2OC)cc1 [Example 35] |  | 177 to 178 |
| COc1ccc(Cn2nnc(-c3ccc(OC)c(C(=O)NCc4ccc(C(=O)O)cc4)c3)n2)cc1 [Example 36, 4-({2-Methoxy-5-[2-(4-methoxy-benzyl)-2H-tetrazol-5-yl]-benzoylamino}-methyl)-benzoic acid] |  | 207 to 209 |

| Compound | IC50 (MMP-13 catalytic domain) [nM] | melting point [°C] |
| --- | --- | --- |
| COc1ccc(Cn2nnc(-c3ccc(OC)c(C(=O)NCc4ccc(C(F)(F)F)cc4)c3)n2)cc1 [Example 37, 2-Methoxy-5-[2-(4-methoxy-benzyl)-2H-tetrazol-5-yl]-N-(4-trifluoromethyl-benzyl)-benzamide] |  | 188 to 190 |
| O=S(=O)(O)c1ccc(Cn2nnc(-c3cccc(C#CCc4ccc(F)cc4)c3)n2)cc1 [Example D1, 4-(5-{3-[3-(4-Fluoro-phenyl)-prop-1-ynyl]-phenyl}-tetrazol-2-ylmethyl)-benzenesulfonic acid] | 4.5 | 151 to 152 |
| O=C(O)COc1ccc(Cn2nnc(-c3cccc(C#CCc4ccc(F)cc4)c3)n2)cc1 [Example D3, [4-(5-{3-[3-(4-Fluoro-phenyl)-prop-1-ynyl]-phenyl}-tetrazol-2-ylmethyl)-phenoxy]-acetic acid] | 7 | 158.2 to 159.6 |
| NS(=O)(=O)c1ccc(Cn2nnc(-c3cccc(C#CCc4ccccc4)c3)n2)cc1 [Example D4, 4-{5-[3-(3-Phenyl-prop-1-ynyl)-phenyl]-tetrazol-2-ylmethyl}-benzenesulfonamide] | 150 | 158 to 159 |
| CS(=O)(=O)c1ccc(Cn2nnc(-c3cccc(C#CCc4ccc(F)cc4)c3)n2)cc1 [Example D5, 5-{3-[3-(4-Fluoro-phenyl)-prop-1-ynyl]-phenyl}-2-(4-methanesulfonyl-benzyl)-2H-tetrazole] | 150 | 101 to 104 |
| CS(=O)(=O)c1ccc(Cn2nnc(-c3ccnc(C(=O)NCc4ccncc4)c3)n2)cc1 [Example F3, 4-[2-(4-Methanesulfonyl-benzyl)-2H-tetrazol-5-yl]-pyridine-2-carboxylic acid (pyridin-4-ylmethyl)-amide] | 22 | 143 to 144 |
| CS(=O)(=O)c1ccc(Cn2nnc(-c3ccnc(C(=O)NCc4cncnc4)c3)n2)cc1 [Example F4, 4-[2-(4-Methanesulfonyl-benzyl)-2H-tetrazol-5-yl]-pyridine-2-carboxylic acid (pyrimidin-5-ylmethyl)-amide] | 210 | 178 to 179 |
| N#Cc1ccc(Cn2nnc(-c3ccnc(C(=O)NCc4ccncc4)c3)n2)cc1 [Example F5, 4-[2-(4-Cyano-benzyl)-2H-tetrazol-5-yl]-pyridine-2-carboxylic acid (pyridin-4-ylmethyl)-amide] | 24 | 178 to 179 |
| COc1ccc(CNC(=O)c2cc(-c3nnn(Cc4ccc(S(C)(=O)=O)cc4)n3)ccn2)cc1 [Example F6, 4-[2-(4-Methanesulfonyl-benzyl)-2H-tetrazol-5-yl]-pyridine-2-carboxylic acid 4-methoxy-benzylamide] | 24 | 145 to 146 |
| CS(=O)(=O)c1ccc(Cn2nnc(-c3ccnc(C(=O)NCc4cccnc4)c3)n2)cc1 [Example F7, 4-[2-(4-Methanesulfonyl-benzyl)-2H-tetrazol-5-yl]-pyridine-2-carboxylic acid (pyridin-3-ylmethyl)-amide] | 110 | 174 to 175 |
| CS(=O)(=O)c1ccc(Cn2nnc(-c3ccnc(C(=O)NCc4ccc(Oc5ccccc5)cc4)c3)n2)cc1 [Example F8, 4-[2-(4-Methanesulfonyl-benzyl)-2H-tetrazol-5-yl]-pyridine-2-carboxylic acid 4-phenoxy-benzylamide] | 190 | 100 to 103 |
| CS(=O)(=O)c1ccc(Cn2nnc(-c3ccnc(C(=O)NC4CCc5ccccc54)c3)n2)cc1 (centres unmarked) [Example F9, 4-[2-(4-Methanesulfonyl-benzyl)-2H-tetrazol-5-yl]-pyridine-2-carboxylic acid indan-1-ylamide] |  | 147 to 150 |
| CS(=O)(=O)c1ccc(Cn2nnc(-c3ccnc(C(=O)NCc4ccc(Cl)c(Cl)c4)c3)n2)cc1 [Example F10, 4-[2-(4-Methanesulfonyl-benzyl)-2H-tetrazol-5-yl]-pyridine-2-carboxylic acid 3,4-dichloro-benzylamide] | 47 | 150 to 152 |
| CS(=O)(=O)c1ccc(Cn2nnc(-c3ccnc(C(=O)NCc4ccc(-n5cccn5)cc4)c3)n2)cc1 [Example F11, 4-[2-(4-Methanesulfonyl-benzyl)-2H-tetrazol-5-yl]-pyridine-2-carboxylic acid 4-pyrazol-1-yl-benzylamide] | 11000 | 173 to 174 |
| O=C(O)c1ccc(Cn2nnc(-c3cccc(C#Cc4ccccc4)c3)n2)cc1 [Example G1, 4-[5-(3-Phenylethynyl-phenyl)-tetrazol-2-ylmethyl]-benzoic acid] | 690 | 226 to 228 |
| O=C(O)c1ccc(Cn2nnc(-c3cccc(C#CCCc4ccccc4)c3)n2)cc1 [Example G2, 4-{5-[3-(4-Phenyl-but-1-ynyl)-phenyl]-tetrazol-2-ylmethyl}-benzoic acid] | 280 | 198 to 199 |
| CC(C)CC#Cc1cccc(-c2nnn(Cc3ccc(C(=O)O)cc3)n2)c1 [Example G3, 4-{5-[3-(4-Methyl-pent-1-ynyl)-phenyl]-tetrazol-2-ylmethyl}-benzoic acid] |  | 192 to 193 |
